According to US8871753B2, “Macrocyclic compounds and their use as kinase inhibitors” (Incyte Corporation, priority 2008, dated 2014):
Counter-ions that a name gives are not always drawn. Like-named read-outs stand apart in the source and are kept apart here.

Key:
Type in all cases: biochemical
[1] = biological target: T1, human JAK3 (a.a. 781-1124) (Homo sapiens, UniProt P52333); experiment: In vitro JAK kinase assay (HTRF, phosphorylation of a biotinylated peptide), JAK3
T1 construct: JAK3 (a.a. 781-1124); His tag (N); made in house; host or cells: insect cells (baculovirus)
Method in brief: (§1)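 Phosphorylation of a biotinylated peptide by the JAK kinase domain, detected by HTRF with Eu-Py20 and SA-APC. ATP was 90 μM for JAK1, 30 μM for JAK2 and 3 μM for JAK3. Reactions ran 1 h at room temperature and were stopped with EDTA, followed by 40 min antibody binding.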

[2] = biological target: T2, human JAK1 (a.a. 837-1142) (Homo sapiens, UniProt P23458); experiment: In vitro JAK kinase assay (HTRF, phosphorylation of a biotinylated peptide), JAK1; conditions: read-out: JAK1 IC50
T2 construct: human JAK1 (a.a. 837-1142); His tag (N); made in house; host or cells: insect cells (baculovirus)
Method in brief: as §1

[3] = biological target: T3, Recombinant Human Anaplastic Lymphoma Kinase (Homo sapiens, UniProt Q9UM73); experiment: ALK HTRF kinase assay; conditions: for IC50: Table D1
T3 construct: purchased Invitrogen, Carlsbad, Calif
Method in brief: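 Recombinant human ALK with biotinylated peptide substrate; phosphorylation detected by HTRF using Eu-labelled anti-phosphotyrosine antibody and streptavidin-allophycocyanin. IC50 from a sigmoidal fit with Hill slope.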

[4] = biological target: T4, human JAK2 (a.a. 828-1132) (Homo sapiens, UniProt O60674); experiment: In vitro JAK kinase assay (HTRF, phosphorylation of a biotinylated peptide), JAK2
T4 construct: JAK2 (a.a. 828-1132); His tag (N); made in house; host or cells: insect cells (baculovirus)
Method in brief: as §1

[5] = biological target: TYK2 (Homo sapiens, UniProt P29597); experiment: TYK2 kinase inhibition (Table A1)
[6] = method AA1 (3 μM ATP) or AA2 (1000 μM ATP), not stated per value
[7] = method AA1 (90 μM ATP) or AA2 (1000 μM ATP), not stated per value
[8] = compound at 500 nM or 1 mM, 90 μM ATP
[9] = method AA1 (30 μM ATP) or AA2 (1000 μM ATP), not stated per value
[10] = compound at a concentration of 500 nM or 1 mM (not specified), cells shown as percentage
[11] = percentage inhibition of the example compound at a concentration of 500 nM or 1 mM (not specified which)

T1 sequence (P52333 781-1124): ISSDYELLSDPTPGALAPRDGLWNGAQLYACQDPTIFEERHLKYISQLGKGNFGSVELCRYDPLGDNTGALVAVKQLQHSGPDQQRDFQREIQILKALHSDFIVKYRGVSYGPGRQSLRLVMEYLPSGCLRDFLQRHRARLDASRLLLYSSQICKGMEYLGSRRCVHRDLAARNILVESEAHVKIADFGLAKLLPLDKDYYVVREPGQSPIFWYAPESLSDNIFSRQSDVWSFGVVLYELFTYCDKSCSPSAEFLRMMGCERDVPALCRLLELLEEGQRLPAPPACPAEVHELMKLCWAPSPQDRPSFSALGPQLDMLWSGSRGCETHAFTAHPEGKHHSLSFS
T2 sequence (P23458 849-1154): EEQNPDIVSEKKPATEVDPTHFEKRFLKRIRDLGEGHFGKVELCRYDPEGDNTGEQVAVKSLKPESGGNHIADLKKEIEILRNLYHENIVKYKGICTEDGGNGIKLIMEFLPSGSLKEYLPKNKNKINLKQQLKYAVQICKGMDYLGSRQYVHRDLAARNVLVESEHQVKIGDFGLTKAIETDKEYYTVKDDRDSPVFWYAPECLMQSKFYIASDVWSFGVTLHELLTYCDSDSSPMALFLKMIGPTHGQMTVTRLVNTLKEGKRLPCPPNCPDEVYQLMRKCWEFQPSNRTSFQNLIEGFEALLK
T3 sequence (Q9UM73 19-1620): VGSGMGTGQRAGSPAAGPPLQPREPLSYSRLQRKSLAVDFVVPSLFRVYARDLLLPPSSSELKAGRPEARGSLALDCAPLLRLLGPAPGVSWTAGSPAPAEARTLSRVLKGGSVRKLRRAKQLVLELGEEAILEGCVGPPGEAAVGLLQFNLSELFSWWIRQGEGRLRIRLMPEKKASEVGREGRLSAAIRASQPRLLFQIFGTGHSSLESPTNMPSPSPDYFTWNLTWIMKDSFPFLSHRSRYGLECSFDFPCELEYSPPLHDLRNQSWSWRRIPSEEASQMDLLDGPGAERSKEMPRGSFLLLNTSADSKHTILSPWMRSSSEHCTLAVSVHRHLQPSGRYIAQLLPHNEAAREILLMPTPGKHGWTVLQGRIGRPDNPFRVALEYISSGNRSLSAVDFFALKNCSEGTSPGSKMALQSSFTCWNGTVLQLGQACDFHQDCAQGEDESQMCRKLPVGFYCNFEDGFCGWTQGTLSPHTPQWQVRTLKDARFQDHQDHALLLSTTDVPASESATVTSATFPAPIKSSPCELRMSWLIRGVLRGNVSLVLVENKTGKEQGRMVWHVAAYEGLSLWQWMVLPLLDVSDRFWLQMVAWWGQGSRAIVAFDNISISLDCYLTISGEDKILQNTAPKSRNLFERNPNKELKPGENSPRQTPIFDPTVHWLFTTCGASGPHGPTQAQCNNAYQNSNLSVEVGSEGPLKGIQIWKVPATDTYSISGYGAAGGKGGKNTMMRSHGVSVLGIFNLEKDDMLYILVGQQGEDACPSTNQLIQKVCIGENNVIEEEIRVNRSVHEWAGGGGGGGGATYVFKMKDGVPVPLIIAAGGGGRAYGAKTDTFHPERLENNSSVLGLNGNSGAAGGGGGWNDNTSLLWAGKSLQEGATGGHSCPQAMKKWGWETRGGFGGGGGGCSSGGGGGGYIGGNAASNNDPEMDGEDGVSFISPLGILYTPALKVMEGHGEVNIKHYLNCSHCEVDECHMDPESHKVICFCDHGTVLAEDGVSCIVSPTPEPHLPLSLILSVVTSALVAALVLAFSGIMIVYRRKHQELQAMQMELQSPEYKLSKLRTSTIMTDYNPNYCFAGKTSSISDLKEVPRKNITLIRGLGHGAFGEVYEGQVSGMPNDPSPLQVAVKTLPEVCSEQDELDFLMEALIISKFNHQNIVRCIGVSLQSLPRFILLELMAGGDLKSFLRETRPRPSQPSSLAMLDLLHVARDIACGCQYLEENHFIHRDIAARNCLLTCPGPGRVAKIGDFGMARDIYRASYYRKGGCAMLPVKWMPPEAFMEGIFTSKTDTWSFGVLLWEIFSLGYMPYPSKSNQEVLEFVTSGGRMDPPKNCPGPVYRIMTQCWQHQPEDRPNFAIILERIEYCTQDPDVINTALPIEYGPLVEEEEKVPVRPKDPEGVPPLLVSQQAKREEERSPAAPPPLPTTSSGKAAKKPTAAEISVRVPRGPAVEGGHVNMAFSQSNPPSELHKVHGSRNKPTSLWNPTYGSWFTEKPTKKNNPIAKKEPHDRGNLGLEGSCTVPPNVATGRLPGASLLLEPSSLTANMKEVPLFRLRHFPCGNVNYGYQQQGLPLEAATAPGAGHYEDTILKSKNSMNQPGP
T4 sequence (O60674 828-1132): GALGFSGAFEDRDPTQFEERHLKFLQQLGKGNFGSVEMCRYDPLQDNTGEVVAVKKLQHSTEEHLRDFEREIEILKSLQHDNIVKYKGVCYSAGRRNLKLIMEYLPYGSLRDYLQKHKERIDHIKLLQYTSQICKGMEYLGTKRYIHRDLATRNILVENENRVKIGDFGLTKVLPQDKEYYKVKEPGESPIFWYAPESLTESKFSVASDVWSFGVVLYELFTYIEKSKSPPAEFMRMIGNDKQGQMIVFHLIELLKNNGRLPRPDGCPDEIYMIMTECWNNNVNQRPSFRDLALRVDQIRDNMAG
Sequence of TYK2 (P29597 whole entry): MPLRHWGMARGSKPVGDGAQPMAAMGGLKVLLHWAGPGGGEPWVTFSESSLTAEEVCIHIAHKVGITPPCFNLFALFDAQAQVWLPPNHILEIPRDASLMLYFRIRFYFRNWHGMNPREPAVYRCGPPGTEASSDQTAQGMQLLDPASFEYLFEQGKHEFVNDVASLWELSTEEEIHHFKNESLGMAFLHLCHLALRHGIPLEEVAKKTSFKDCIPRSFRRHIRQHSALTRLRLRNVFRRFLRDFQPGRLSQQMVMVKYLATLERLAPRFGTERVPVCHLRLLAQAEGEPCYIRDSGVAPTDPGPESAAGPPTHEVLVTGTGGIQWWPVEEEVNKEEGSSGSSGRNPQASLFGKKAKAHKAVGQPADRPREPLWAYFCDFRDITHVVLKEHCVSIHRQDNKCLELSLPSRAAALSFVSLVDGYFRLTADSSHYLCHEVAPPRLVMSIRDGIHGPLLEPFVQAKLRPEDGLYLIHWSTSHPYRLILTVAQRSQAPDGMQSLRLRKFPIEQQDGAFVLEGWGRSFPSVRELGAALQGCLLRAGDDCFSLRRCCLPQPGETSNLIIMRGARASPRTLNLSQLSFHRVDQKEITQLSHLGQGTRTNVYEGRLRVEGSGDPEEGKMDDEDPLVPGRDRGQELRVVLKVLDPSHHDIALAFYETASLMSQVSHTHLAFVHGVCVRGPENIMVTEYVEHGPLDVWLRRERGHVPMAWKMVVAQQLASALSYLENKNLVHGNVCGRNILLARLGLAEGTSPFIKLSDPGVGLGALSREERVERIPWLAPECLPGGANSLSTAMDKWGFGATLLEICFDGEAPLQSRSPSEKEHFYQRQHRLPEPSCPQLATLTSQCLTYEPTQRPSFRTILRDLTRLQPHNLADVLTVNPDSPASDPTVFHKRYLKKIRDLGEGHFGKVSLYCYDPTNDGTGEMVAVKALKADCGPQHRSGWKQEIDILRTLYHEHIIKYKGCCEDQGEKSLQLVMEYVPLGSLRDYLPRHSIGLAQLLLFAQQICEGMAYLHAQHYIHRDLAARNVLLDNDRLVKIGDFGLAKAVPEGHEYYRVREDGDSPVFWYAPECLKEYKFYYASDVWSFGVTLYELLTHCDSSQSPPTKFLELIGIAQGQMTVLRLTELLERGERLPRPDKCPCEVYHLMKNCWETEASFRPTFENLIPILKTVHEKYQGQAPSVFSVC

Structure (SMILES) | IC50 ([1]; Table D1) | IC50 ([2]; Table D1) | IC50 ([3]; 90 μM ATP) | IC50 ([4]; Table D1) | IC50 ([5]; Table D1) | IC50 [1, 6] | IC50 [2, 7] | ALK % of inhibition at a concentration of 500 nM or 1 mM [3, 8] | IC50 [4, 9] | IC50 [5] | IC50 ([1]; Table B1) | IC50 ([2]; Table B1) | IC50 ([4]; Table B1) | IC50 ([5]; Table B1) | also measured
Clc1cnc2nc1Nc1cccc(c1)COCc1cccc(c1)N2 [Example D21, 6-Chloro-15-oxa-2,4,8,23-tetraazatetracyclo[15.3.1.1(3,7).1(9,13)]tricosa-1(21),3(23),4,6,9(22),10,12,17,19-nonaene trifluoroacetate] | 45 nM | 8.1 nM | 984 nM | 13 nM | 27 nM |  |  |  |  |  |  |  |  |  | 
CS(=O)(=O)c1ccc(-c2cc3cc(c2)Nc2ncc(Cl)c(n2)Nc2cccc(c2)OCC3)cc1 [Example D29, 6-Chloro-19-[4-(methylsulfonyl)phenyl]-14-oxa-2,4,8,23-tetraazatetracyclo[15.3.1.1(3,7).1(9,13)]tricosa-1(21),3(23),4,6,9(22),10,12,17,19-nonaene trifluoroacetate] | 14 nM | 2 nM | 238 nM | 0.5 nM | 3.4 nM |  |  |  |  |  |  |  |  |  | 
CC(C)(C)NC(=O)N1CCN(c2cc(-c3cc4cc(c3)Nc3ncc(Cl)c(n3)Nc3cccc(c3)OCC4)ccn2)CC1 [Example D41, N-(tert-Butyl)-4-{4-[6-chloro-14-oxa-2,4,8,23-tetraazatetracyclo[15.3.1.1(3,7).1(9,13)]tricosa-1(21),3(23),4,6,9(22),10,12,17,19-nonaen-19-yl]pyridin-2-yl}piperazine-1-carboxamide bis(trifluoroacetate)] | 17 nM | 3.1 nM | 280 nM | 0.4 nM | 6.2 nM |  |  |  |  |  |  |  |  |  | 
Cc1nc(C)c(S(=O)(=O)N2CCC(CC(=O)Nc3ccc4cc3CCc3cncc(c3)Nc3ncc(Cl)c(n3)N4)CC2)s1 [Example A232, N-[6-Chloro-2,4,8,18,22-pentaazatetracyclo[14.3.1.1(3,7).1(9,13)]docosa-1(20),3(22),4,6,9(21),10,12,16,18-nonaen-12-yl]-2-{1-[(2,4-dimethyl-1,3-thiazol-5-yl)sulfonyl]piperidin-4-yl}acetamide bis(trifluoroacetate)] |  |  |  |  |  | > 400 nM | 12 nM | 43% | 94 nM | 326 nM |  |  |  |  | 
O=C(NCCN1CCCCC1)Nc1ccc2cc1CCc1cccc(c1)Nc1ncc(Cl)c(n1)N2 [Example B258, N-[6-Chloro-2,4,8,22-tetraazatetracyclo[14.3.1.1(3,7).1(9,13)]docosa-1(20),3(22),4,6,9(21),10,12,16,18-nonaen-12-yl]-N′-(2-piperidin-1-ylethyl)urea bis(trifluoroacetate)] |  |  |  |  |  |  |  |  |  |  | 83 nM | 4.9 nM | 10 nM | 24 nM | ALK % of inhibition at a concentration of 500 nM or 1 mM [3, 10]: 29%
O=C(CC1CCN(c2ncccn2)CC1)Nc1ccc2cc1CCc1cncc(c1)Nc1ncc(Cl)c(n1)N2 [Example A172, N-[6-Chloro-2,4,8,18,22-pentaazatetracyclo[14.3.1.1(3,7).1(9,13)]docosa-1(20),3(22),4,6,9(21),10,12,16,18-nonaen-12-yl]-2-(1-pyrimidin-2-ylpiperidin-4-yl)acetamide tris(trifluoroacetate)] |  |  |  |  |  | > 1000 nM | 11 nM | 28% | 199 nM | 237 nM |  |  |  |  | 
Cc1ncoc1C(=O)N1CCC(CC(=O)Nc2ccc3cc2CCc2cncc(c2)Nc2ncc(Cl)c(n2)N3)CC1 [Example A132, N-[6-Chloro-2,4,8,18,22-pentaazatetracyclo[14.3.1.1(3,7).1(9,13)]docosa-1(20),3(22),4,6,9(21),10,12,16,18-nonaen-12-yl]-2-{1-[(4-methyl-1,3-oxazol-5-yl)carbonyl]piperidin-4-yl}acetamide bis(trifluoroacetate)] |  |  |  |  |  | 248 nM | 7.9 nM | 23% | 18 nM | 17 nM |  |  |  |  | 
Clc1cnc2nc1Nc1cccc(c1)OCCOc1cccc(c1)N2 [Example D10, 6-Chloro-14,17-dioxa-2,4,8,24-tetraazatetracyclo[16.3.1.1(3,7).1(9,13)]tetracosa-1(22),3(24),4,6,9(23),10,12,18,20-nonaene trifluoroacetate] | 10 nM | 8.2 nM | 791 nM | 2.4 nM | 8.1 nM |  |  |  |  |  |  |  |  |  | 
CC(=O)N1CCN(C(=O)Nc2ccc3cc2CCc2cncc(c2)Nc2ncc(Cl)c(n2)N3)CC1 [Example B317, 4-Acetyl-N-[6-chloro-2,4,8,18,22-pentaazatetracyclo[14.3.1.1(3,7).1(9,13)]docosa-1(20),3(22),4,6,9(21),10,12,16,18-nonaen-12-yl]piperazine-1-carboxamide bis(trifluoroacetate)] |  |  |  |  |  |  |  |  |  |  | > 400 nM | 57 nM | > 400 nM | 356 nM | ALK % of inhibition at a concentration of 500 nM or 1 mM [3, 11]: 50%
N#Cc1ccc(S(=O)(=O)N2CCC(CC(=O)Nc3ccc4cc3CCc3cccc(c3)Nc3ncc(Cl)c(n3)N4)CC2)cc1 [Example A209, N-[6-Chloro-2,4,8,22-tetraazatetracyclo[14.3.1.1(3,7).1(9,13)]docosa-1(20),3(22),4,6,9(21),10,12,16,18-nonaen-12-yl]-2-{1-[(4-cyanophenyl)sulfonyl]piperidin-4-yl}acetamide trifluoroacetate] |  |  |  |  |  | > 200 nM | 60 nM | 19% | 120 nM | > 200 nM |  |  |  |  | 
CN(Cc1ccc2cc1CCc1cncc(c1)Nc1ncc(Cl)c(n1)N2)CC1CCN(C(=O)c2ccno2)CC1 [Example B345, 1-[6-Chloro-2,4,8,18,22-pentaazatetracyclo[14.3.1.1(3,7).1(9,13)]docosa-1(20),3(22),4,6,9(21),10,12,16,18-nonaen-12-yl]-N-{[1-(isoxazol-5-ylcarbonyl)piperidin-4-yl]methyl}-N-methylmethanamine tris(trifluoroacetate)] |  |  |  |  |  |  |  |  |  |  | > 400 nM | 17 nM | 179 nM | 98 nM | ALK % of inhibition at a concentration of 500 nM or 1 mM [3, 11]: 40%
O=C(NCCNS(=O)(=O)c1ccc(Cl)nc1)Nc1ccc2cc1CCc1cccc(c1)Nc1ncc(Cl)c(n1)N2 [Example B331, 6-Chloro-N-{2-[({[6-chloro-2,4,8,22-tetraazatetracyclo[14.3.1.1(3,7).1(9,13)]docosa-1(20),3(22),4,6,9(21),10,12,16,18-nonaen-12-yl]amino}carbonyl)amino]ethyl}pyridine-3-sulfonamide trifluoroacetate] |  |  |  |  |  |  |  |  |  |  | 2.7 nM | 2 nM | 3.6 nM | 16 nM | ALK % of inhibition at a concentration of 500 nM or 1 mM [3, 11]: 27%
O=C(Nc1ccccc1)N1CCN(c2cc(-c3cc4cc(c3)Nc3ncc(Cl)c(n3)Nc3cccc(c3)OCC4)ccn2)CC1 [Example D44, 4-{4-[6-Chloro-14-oxa-2,4,8,23-tetraazatetracyclo[15.3.1.1(3,7).1(9,13)]tricosa-1(21),3(23),4,6,9(22),10,12,17,19-nonaen-19-yl]pyridin-2-yl}-N-phenylpiperazine-1-carboxamide bis(trifluoroacetate)] | 18 nM | 2.6 nM | 480 nM | 1.5 nM | 15 nM |  |  |  |  |  |  |  |  |  | 
O=C(Nc1ccc2cc1CCc1cccc(c1)Nc1ncc(Cl)c(n1)N2)c1cnc2ccccc2n1 [Example B72, N-[6-Chloro-2,4,8,22-tetraazatetracyclo[14.3.1.1(3,7).1(9,13)]docosa-1(20), 3(22),4,6,9(21),10,12,16,18-nonaen-12-yl]quinoxaline-2-carboxamide bis(trifluoroacetate)] |  |  |  |  |  |  |  |  |  |  | > 500 nM | 200 nM | 55 nM | 77 nM | ALK % of inhibition at a concentration of 500 nM or 1 mM [3, 10]: 12%
COc1ccc(S(=O)(=O)N2CCC(CC(=O)Nc3ccc4cc3CCc3cncc(c3)Nc3ncc(Cl)c(n3)N4)CC2)cc1 [Example A197, N-[6-Chloro-2,4,8,18,22-pentaazatetracyclo[14.3.1.1(3,7).1(9,13)]docosa-1(20),3(22),4,6,9(21),10,12,16,18-nonaen-12-yl]-2-{1-[(4-methoxyphenyl)sulfonyl]piperidin-4-yl}acetamide bis(trifluoroacetate)] |  |  |  |  |  | > 200 nM | 30 nM | 39% | > 200 nM | > 200 nM |  |  |  |  | 
Clc1cnc2nc1Nc1cccc(c1)OCCNc1cccc(c1)N2 [Example D70, 6-Chloro-14-oxa-2,4,8,17,24-pentaazatetracyclo[16.3.1.1(3,7).1(9,13)]tetracosa-1(22),3(24),4,6,9(23),10,12,18,20-nonaene bis(trifluoroacetate)] | 8.1 nM | 9 nM | 375 nM | 2.1 nM | 5 nM |  |  |  |  |  |  |  |  |  | 
